Like-named read-outs stand apart in the source and are kept apart here.
What was measured:
[1] = biological target: CDK7/Cyclin H/MAT1 complex (Homo sapiens, UniProt P50613); test: CDK7 inhibition assay (Caliper/LabChip EZ Reader kinase assay); format: biochemical; settings: Table 1; CDK7/Cyclin H/MAT1 6 nM, ATP 2 mM, 35 min at 27° C.
Method in brief: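 A Perkin Elmer Caliper/LabChip EZ Reader (Waltham, MA) platform served as the basis for this CDK7 kinase inhibition assay. The work was carried out by Biortus Biosciences, located in Jiangyin, Jiangsu Province, P.R. of China. Each CDK studied had its own kinase assay, and compounds were evaluated for their ability to block CDK7 activity.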

CDK2/Cyclin E1 complex = CDK2/Cyclin E1 complex (Homo sapiens, UniProt P24941); test: CDK2 inhibition assay (Caliper/LabChip EZ Reader kinase assay); format: biochemical; settings: Table 1; CDK2/Cyclin E1 0.5 nM, ATP 2 mM, 35 min at 27° C.
Method in brief: (§1)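 Caliper/LabChip EZ Reader mobility-shift assays. CDK9/Cyclin T1 at 8 nM with 2 μM 5-FAM-CDK9tide peptide and 10 mM MgCl2; CDK2/Cyclin E1 at 0.5 nM with 2 μM 5-FAM-CDK7tide and 2 mM MgCl2.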

[2] = biological target: T1, CDK12 (aa686-1082)/Cyclin K complex (Homo sapiens, UniProt Q9NYV4); test: CDK12 inhibition assay (Caliper/LabChip EZ Reader kinase assay); format: biochemical; settings: Table 1; CDK12 (aa686-1082)/Cyclin K 50 nM, ATP 2 mM, 3 hr at 27° C.
T1 construct: CDK12 (aa686-1082)/Cyclin K complex

HCC70 cells = test: Inhibition of proliferation of HCC70 cells (CyQUANT Direct Cell Proliferation Assay, 72 hour); format: cell-based, human; settings: read-out: Inhibition of Proliferation of HCC70 Cells (calculated IC50)
Protocol: HCC70 cells are a cell line derived from human triple negative breast cancer. […] Known CDK inhibitors dinaciclib or N-((1S,3R)-3-((5-chloro-4-(1H-indol-3-yl) pyrimidin-2-yl)amino)cyclohexyl)-5-((E)-4-(dimethylamino)but-2-enamido)picolinamide and triptolide were used as positive controls. […] The cells were cultured at 37° C. in a humidified chamber in the presence of 5% CO2. Proliferation assays were conducted over a 72 hour time period. CyQUANT® Direct Cell Proliferation Assay (Life Technologies, Chicago, IL USA) was used to assess the anti-proliferative effects of the compounds following manufacturer's directions and utilizing the reagents supplied with the CyQUANT® Direct Cell kit.

CDK9/Cyclin T1 complex = CDK9/Cyclin T1 complex (Homo sapiens, UniProt P50750); test: CDK9 inhibition assay (Caliper/LabChip EZ Reader kinase assay); format: biochemical; settings: Table 1; CDK9/Cyclin T1 8 nM, ATP 2 mM, 15 min at 27° C.
Method in brief: as §1

Chain of CDK7/Cyclin H/MAT1 complex (P50613 whole entry, species assumed): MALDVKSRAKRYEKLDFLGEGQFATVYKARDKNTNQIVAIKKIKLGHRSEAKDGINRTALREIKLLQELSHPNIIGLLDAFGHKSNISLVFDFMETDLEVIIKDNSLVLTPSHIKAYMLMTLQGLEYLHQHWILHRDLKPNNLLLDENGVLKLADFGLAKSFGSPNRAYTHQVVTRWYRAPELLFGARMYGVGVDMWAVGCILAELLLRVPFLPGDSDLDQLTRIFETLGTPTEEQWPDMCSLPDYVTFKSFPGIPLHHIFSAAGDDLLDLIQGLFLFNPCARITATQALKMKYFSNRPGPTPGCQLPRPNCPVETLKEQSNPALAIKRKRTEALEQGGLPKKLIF
Chain of CDK7/Cyclin H/MAT1 complex (P51946 whole entry partner, species assumed): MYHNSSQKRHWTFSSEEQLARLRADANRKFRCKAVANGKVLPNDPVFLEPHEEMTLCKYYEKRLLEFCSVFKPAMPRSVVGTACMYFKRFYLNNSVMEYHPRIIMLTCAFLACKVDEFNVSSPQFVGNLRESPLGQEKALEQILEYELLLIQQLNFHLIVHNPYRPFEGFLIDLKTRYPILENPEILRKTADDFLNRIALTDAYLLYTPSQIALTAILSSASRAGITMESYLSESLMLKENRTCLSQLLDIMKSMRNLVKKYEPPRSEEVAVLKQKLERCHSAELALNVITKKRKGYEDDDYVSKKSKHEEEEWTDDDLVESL
Chain of CDK7/Cyclin H/MAT1 complex (P51948 whole entry partner, species assumed): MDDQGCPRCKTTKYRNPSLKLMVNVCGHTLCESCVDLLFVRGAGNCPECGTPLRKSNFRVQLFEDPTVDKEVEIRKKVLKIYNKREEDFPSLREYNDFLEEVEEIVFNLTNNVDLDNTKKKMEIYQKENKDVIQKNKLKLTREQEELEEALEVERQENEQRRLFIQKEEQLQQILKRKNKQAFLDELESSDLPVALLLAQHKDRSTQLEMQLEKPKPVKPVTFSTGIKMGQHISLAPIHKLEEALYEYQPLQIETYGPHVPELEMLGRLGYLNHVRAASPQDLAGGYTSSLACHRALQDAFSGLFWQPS
Chain of CDK9/Cyclin T1 complex (P50750 whole entry, species assumed): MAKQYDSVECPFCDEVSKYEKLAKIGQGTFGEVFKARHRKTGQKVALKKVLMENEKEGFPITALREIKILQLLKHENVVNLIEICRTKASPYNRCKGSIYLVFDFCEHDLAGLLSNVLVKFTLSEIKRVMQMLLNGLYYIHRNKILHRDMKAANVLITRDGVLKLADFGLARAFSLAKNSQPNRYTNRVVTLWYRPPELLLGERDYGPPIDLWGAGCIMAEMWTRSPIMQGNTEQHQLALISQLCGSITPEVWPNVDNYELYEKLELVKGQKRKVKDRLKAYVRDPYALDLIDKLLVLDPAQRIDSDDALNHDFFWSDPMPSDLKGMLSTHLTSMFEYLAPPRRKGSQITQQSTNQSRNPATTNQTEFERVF
Chain of CDK9/Cyclin T1 complex (O60563 whole entry partner, species assumed): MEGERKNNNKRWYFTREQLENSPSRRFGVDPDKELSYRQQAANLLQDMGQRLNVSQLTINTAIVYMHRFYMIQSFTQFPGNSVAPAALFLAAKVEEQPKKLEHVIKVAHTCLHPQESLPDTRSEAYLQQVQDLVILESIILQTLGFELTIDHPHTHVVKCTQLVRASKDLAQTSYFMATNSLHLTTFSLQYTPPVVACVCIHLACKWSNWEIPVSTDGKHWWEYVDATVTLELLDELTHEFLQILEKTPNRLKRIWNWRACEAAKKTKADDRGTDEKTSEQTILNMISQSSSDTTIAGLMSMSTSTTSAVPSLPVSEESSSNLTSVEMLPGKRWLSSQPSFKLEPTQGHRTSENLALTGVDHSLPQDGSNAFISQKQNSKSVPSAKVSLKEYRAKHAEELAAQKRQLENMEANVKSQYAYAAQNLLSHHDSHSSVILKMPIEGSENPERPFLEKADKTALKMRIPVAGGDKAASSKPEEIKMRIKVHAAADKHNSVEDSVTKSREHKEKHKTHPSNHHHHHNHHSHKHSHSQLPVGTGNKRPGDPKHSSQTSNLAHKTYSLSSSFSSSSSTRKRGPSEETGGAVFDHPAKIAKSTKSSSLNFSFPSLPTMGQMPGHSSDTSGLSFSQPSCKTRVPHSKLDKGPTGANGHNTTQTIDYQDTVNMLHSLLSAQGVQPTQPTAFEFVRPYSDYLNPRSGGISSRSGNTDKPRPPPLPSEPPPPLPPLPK
T1 sequence (Q9NYV4 686-1082, species assumed): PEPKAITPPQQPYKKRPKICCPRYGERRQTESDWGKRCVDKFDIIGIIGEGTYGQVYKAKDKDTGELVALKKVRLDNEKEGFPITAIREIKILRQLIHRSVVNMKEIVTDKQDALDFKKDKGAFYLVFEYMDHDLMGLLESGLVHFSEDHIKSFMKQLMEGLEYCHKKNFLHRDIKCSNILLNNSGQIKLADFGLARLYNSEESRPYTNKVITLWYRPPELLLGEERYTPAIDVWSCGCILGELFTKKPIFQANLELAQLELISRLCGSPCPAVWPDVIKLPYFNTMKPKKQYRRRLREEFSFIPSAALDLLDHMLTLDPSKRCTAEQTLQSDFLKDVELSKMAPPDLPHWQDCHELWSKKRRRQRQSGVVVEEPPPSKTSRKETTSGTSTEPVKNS
T1 sequence (O75909 whole entry partner, species assumed, the tested form may be a part): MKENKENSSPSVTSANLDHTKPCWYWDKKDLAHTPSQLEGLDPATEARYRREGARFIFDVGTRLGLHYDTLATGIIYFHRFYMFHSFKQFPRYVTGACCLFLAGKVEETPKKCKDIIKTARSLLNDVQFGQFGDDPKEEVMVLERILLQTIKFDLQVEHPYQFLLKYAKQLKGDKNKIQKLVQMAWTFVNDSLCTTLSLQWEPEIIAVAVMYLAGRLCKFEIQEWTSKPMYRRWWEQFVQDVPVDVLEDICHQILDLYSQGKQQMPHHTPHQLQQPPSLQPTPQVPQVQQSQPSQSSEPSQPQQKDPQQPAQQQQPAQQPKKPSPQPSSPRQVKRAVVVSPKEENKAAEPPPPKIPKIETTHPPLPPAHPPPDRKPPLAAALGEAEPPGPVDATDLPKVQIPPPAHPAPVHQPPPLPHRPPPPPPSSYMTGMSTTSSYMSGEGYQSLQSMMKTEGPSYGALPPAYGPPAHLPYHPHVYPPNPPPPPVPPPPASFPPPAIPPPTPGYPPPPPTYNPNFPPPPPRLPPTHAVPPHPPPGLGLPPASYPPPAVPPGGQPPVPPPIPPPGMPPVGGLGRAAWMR

| SMILES | IC50 [1] [nM] | IC50 (CDK2/Cyclin E1 complex) [nM] | IC50 [2] [nM] | IC50 (HCC70 cells; Homo sapiens, HCC70, 72 h) [nM] | IC50 (CDK9/Cyclin T1 complex) [nM] | IC50 (HCC70 cells) [nM] |
| --- | --- | --- | --- | --- | --- | --- |
| CC1(O)CCN(C(=O)c2ccc3c(-c4nc(N[C@H]5CCCNC5)ncc4C(F)(F)F)c[nH]c3c2)CC1 [Compound 282, (4-hydroxy-4-methyl-1-piperidyl)-[3-[2-[[(3S)-3-piperidyl]amino]-5-(trifluoromethyl)pyrimidin-4-yl]-1H-indol-6-yl] methanone] | < 20 | 200 to 5000 | 200 to 5000 | 100 to 1000 | > 5000 |  |
| COCn1cc(-c2nc(N[C@H]3CCCNC3)ncc2C(F)(F)F)c2cccc(C#N)c21 [Compound 295] | 20 to 200 | > 5000 | > 5000 |  | > 5000 | 1000 to 5000 |
| Cn1cc(-c2nc(N[C@H]3CCCNC3)ncc2C(F)(F)F)c2cccc(S(C)(=O)=O)c21 [Compound 296] | 20 to 200 | > 5000 | > 5000 |  | > 5000 | 1000 to 5000 |
| CNC(=O)c1ccc2c(-c3nc(N[C@H]4CCCNC4)ncc3C(F)(F)F)c[nH]c2n1 [Compound 297] | < 20 | 200 to 5000 | 200 to 5000 | < 100 | 200 to 5000 |  |
| CCN1CCC[C@H](Nc2ncc(C(F)(F)F)c(-c3c[nH]c4cc(S(C)(=O)=O)ccc34)n2)C1 [Compound 298] | < 20 | 200 to 5000 | 200 to 5000 | 100 to 1000 | > 5000 |  |
| N#Cc1ccc2c(-c3nc(N[C@H]4CCCNC4)ncc3OC(F)F)c[nH]c2c1 [Compound 301, 3-[5-(difluoromethoxy)-2-[[(3S)-3-piperidyl]amino]pyrimidin-4-yl]-1H-indole-6-carbonitrile] | 20 to 200 | > 5000 | > 5000 | 1000 to 5000 | > 5000 |  |
| O=C1CCN(C(=O)c2ccc3c(-c4nc(N[C@H]5CCCNC5)ncc4C(F)(F)F)c[nH]c3c2)C1 [Compound 302, 1-[3-[2-[[(3S)-3-piperidyl]amino]-5-(trifluoromethyl)pyrimidin-4-yl]-1H-indole-6-carbonyl] pyrrolidin-3-one] | 20 to 200 | 200 to 5000 | 200 to 5000 | 100 to 1000 | 200 to 5000 |  |
| CNC(=O)c1cccc2c(-c3nc(N[C@H]4CCCNC4)ncc3C(F)(F)F)cn(COC)c12 [Compound 304] | > 5000 | > 5000 | > 5000 |  | > 5000 | 1000 to 5000 |
| FC(F)(F)Sc1cnc(NC2CCCNC2)nc1-c1c[nH]c2ccccc12 (stereo not drawn) [Compound 305, 4-(1H-indol-3-yl)-N-(piperidin-3-yl)-5-((trifluoromethyl)thio)pyrimidin-2-amine] | < 20 | 200 to 5000 | 200 to 5000 | 1000 to 5000 | 200 to 5000 |  |
| O=C(c1ccc2c(-c3nc(N[C@H]4CCCNC4)ncc3C(F)(F)F)c[nH]c2c1)N1C[C@H](O)C(F)(F)C1 [Compound 308, [(4S)-3,3-difluoro-4-hydroxy-pyrrolidin-1-yl]-[3-[2-[[(3S)-3-piperidyl]amino]-5-(trifluoromethyl)pyrimidin-4-yl]-1H-indol-6-yl]methanone] | < 20 | 200 to 5000 | 200 to 5000 | 100 to 1000 | 200 to 5000 |  |
| Oc1ncccc1-c1ccc2c(-c3nc(N[C@H]4CCCNC4)ncc3C(F)(F)F)c[nH]c2c1 [Compound 310, 3-[3-[2-[[(3S)-3-piperidyl]amino]-5-(trifluoromethyl)pyrimidin-4-yl]-1H-indol-6-yl]pyridin-2-ol] | < 20 | 200 to 5000 | 200 to 5000 | 100 to 1000 | > 5000 |  |
| Cc1c(-c2ccc3c(-c4nc(N[C@H]5CCCNC5)ncc4C(F)(F)F)c[nH]c3c2)c[nH]c(=O)c1C#N [Compound 311, 4-methyl-2-oxo-5-[3-[2-[[(3S)-3-piperidyl]amino]-5-(trifluoromethyl)pyrimidin-4-yl]-1H-indol-6-yl]-1H-pyridine-3-carbonitrile] | < 20 | 200 to 5000 | 200 to 5000 | 1000 to 5000 | 200 to 5000 |  |
| FC(F)(F)c1cnc(N[C@H]2CCCNC2)nc1-c1c[nH]c2cc(-c3ccc4[nH]cnc4c3)ccc12 [Compound 313] | < 20 | 200 to 5000 | 200 to 5000 |  | 200 to 5000 | 100 to 1000 |
| NC(=O)c1cccc(-c2ccc3c(-c4nc(N[C@H]5CCCNC5)ncc4C(F)(F)F)c[nH]c3c2)c1 [Compound 314] | < 20 | 200 to 5000 | 200 to 5000 |  | 200 to 5000 | 100 to 1000 |
| OCc1cccc(-c2ccc3c(-c4nc(N[C@H]5CCCNC5)ncc4C(F)(F)F)c[nH]c3c2)n1 [Compound 316] | < 20 | 200 to 5000 | 200 to 5000 |  | > 5000 | 100 to 1000 |
| OCc1cncc(-c2ccc3c(-c4nc(N[C@H]5CCCNC5)ncc4C(F)(F)F)c[nH]c3c2)c1 [Compound 318] | < 20 | 200 to 5000 | 200 to 5000 |  | 200 to 5000 | 100 to 1000 |
| Cn1cc(-c2ccc3c(-c4nc(NC5CCCNC5)ncc4C(F)(F)F)c[nH]c3c2)ccc1=O (stereo not drawn) [Compound 321] | < 20 | > 5000 | 200 to 5000 | 100 to 1000 | > 5000 |  |
| OCc1ncccc1-c1ccc2c(-c3nc(N[C@H]4CCCNC4)ncc3C(F)(F)F)c[nH]c2c1 [Compound 323] | < 20 | 200 to 5000 | 200 to 5000 |  | > 5000 | 100 to 1000 |
| FC(F)(F)c1cnc(N[C@H]2CCCNC2)nc1-c1c[nH]c2cc(-c3cnccn3)ccc12 [Compound 328] | < 20 | 200 to 5000 | 200 to 5000 |  | 200 to 5000 | < 100 |
| Cc1noc(C)c1-c1ccc2c(-c3nc(N[C@H]4CCCNC4)ncc3C(F)(F)F)c[nH]c2c1 [Compound 330] | < 20 | 200 to 5000 | 200 to 5000 |  | 200 to 5000 | < 100 |
| FC(F)(F)c1cnc(N[C@H]2CCCNC2)nc1-c1c[nH]c2cc(-c3nccs3)ccc12 [Compound 332] | < 20 | 200 to 5000 | 200 to 5000 |  | 200 to 5000 | < 100 |
| O=C1CCc2ccc(-c3ccc4c(-c5nc(N[C@H]6CCCNC6)ncc5C(F)(F)F)c[nH]c4c3)cc2N1 [Compound 334] | 20 to 200 | 200 to 5000 | 200 to 5000 |  | 200 to 5000 | 100 to 1000 |
| Cc1ccncc1-c1ccc2c(-c3nc(NC4CCCNC4)ncc3C(F)(F)F)c[nH]c2c1 (stereo not drawn) [Compound 336] | < 20 | 200 to 5000 | 200 to 5000 | < 100 | 200 to 5000 |  |
| CC(=O)NCc1cccc(-c2ccc3c(-c4nc(N[C@H]5CCCNC5)ncc4C(F)(F)F)c[nH]c3c2)c1 [Compound 338] | 20 to 200 | 200 to 5000 | 200 to 5000 |  | 200 to 5000 | 100 to 1000 |
